# Assay results taken from patent publication US6924297B2, “Naphathalene derivatives which bind to the EP4 receptor” (SmithKline Beecham Corporation, priority 2000, dated 2005).
# Target: T1, human EP4 receptor (Homo sapiens, UniProt P35408)
# T1 construct: expressed in transfected cells; host or cells: Chinese Hamster Ovary (CHO) cells infected with recombinant Semliki Forest Virus (SFV-1) particles; membranes prepared from these cells
# Assay: Human EP4 Scintillation Proximity Assay (radioligand binding)
# Details: membranes of CHO cells expressing human EP4 receptor; [3H]-prostaglandin E2 radioligand; pKi from IC50 by Cheng-Prusoff; read-out: pKI at EP4 receptors (converted)
# Procedure: Quantification of radioligand binding by scintillation proximity assay (SPA) is a long-established principle. Briefly, the affinity of compounds for a receptor is assessed by the specific competition between known quantities of radiolabelled ligand and compound for that receptor. Increasing concentrations of compound reduce the amount of radiolabel that binds to the receptor. This gives rise to a diminishing scintillation signal from SPA beads coated with membranes that bear the receptor. The signal may be detected with a suitable scintillation counter and the data generated may be analysed with suitable curve-fitting software.
# The human EP4 SPA assay (hereafter referred to as ‘the assay’) utilises membranes prepared from Chinese Hamster Ovary (CHO cells) infected with Semliki Forest Virus (SFV). Genetically engineered SFV-1 viral particles containing the genetic sequence of the human EP4 receptor were used to infect CHO cells resulting in expression of the receptor protein in cellular membranes. Cells washed free of media are homogenised in a pH-buffered medium containing peptidase inhibitors. A suitable buffer is of the following composition: 50 mM HEPES, 1 mM EDTA, 25 μg/ml bacitracin, 100 μM leupeptin, 1 mM PMSF, 2 μM Pepstatin A, pH adjusted to 7.4 with KOH. Following removal of cell debris by a low-speed centrifugation, a pellet of membranes is prepared by a high-speed (48000 g) centrifugation of the resulting supernatant. Membrane suspensions such as that described may be stored at −80° C. until used.
# For assay, membranes expressing human EP4 receptors are diluted in a pH-buffered medium and mixed with SPA beads coated with a suitable substance to facilitate the adhesion of membranes to the beads. The concentrations of membrane protein and SPA beads chosen should result in SPA binding signal of at least 300 corrected counts per minute (CCPM) when tritiated radioligand at a concentration close to its Kd (affinity value) is combined with the mixture. Non-specific binding (nsb) may be determined by competition between the radiolabelled ligand and a saturating concentration of unlabelled ligand. In order to quantify the affinity of EP4 receptor ligands, compounds are diluted in a stepwise manner across the wells of a 96-well plate. Radioligand, compound, and unlabelled ligand are then added to a 96-well plate suitable for the measurement of SPA binding signals prior to the addition of bead/membrane mixture to initiate the binding reaction. Equilibrium may be achieved by incubation at room temperature for 120 minutes prior to scintillation counting. The data so generated may be analysed by means of a computerised curve-fitting routine in order to quantify the concentration of compound that displaces 50% of the specific radioligand binding (IC50). The affinity (pKi) of the compound may be calculated from the IC50 by application of the Cheng-Prusoff correction. Suitable reagents and protocols are: reaction buffer containing 50 mM HEPES, 10 mM MgCl2, pH adjusted to 7.4 with KOH; SPA beads coated with wheatgerm agglutinin; 1.25 nM [^3H]-prostaglandin E2 as radioligand; 10 μM prostaglandin E2 as unlabelled ligand; a three-fold dilution series of compound starting at 10 μM and ending at 0.3 nM is adequate.
# T1 sequence (P35408 whole entry): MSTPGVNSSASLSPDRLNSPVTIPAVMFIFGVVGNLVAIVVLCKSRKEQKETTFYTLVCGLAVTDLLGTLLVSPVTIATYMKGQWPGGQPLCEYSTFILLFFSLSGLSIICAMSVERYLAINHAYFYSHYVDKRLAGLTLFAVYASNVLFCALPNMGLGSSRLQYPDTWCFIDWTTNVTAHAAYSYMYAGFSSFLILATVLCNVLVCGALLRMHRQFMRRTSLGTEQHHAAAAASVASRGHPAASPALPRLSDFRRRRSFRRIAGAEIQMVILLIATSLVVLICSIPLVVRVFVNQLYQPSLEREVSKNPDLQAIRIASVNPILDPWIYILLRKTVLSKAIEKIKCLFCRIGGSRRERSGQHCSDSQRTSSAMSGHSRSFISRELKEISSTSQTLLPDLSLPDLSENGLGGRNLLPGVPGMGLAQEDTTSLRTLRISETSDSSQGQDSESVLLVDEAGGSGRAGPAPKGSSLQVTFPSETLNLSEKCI
row,Compound,Ki
1,CCOc1c2c(c(OCC)c3ccccc13)C(=O)N(c1ccc(CS(=O)(=O)NC(=O)C(C)c3ccc(CC(C)C)cc3)cc1)C2 (centres unmarked) [Example 40],≤ 0.1 µM
2,CCOc1c2c(c(OCC)c3ccccc13)C(=O)N(c1ccc(CS(=O)(=O)NC(=O)Cc3ccccc3Cl)cc1)C2 [Example 29],≤ 0.1 µM
3,CCOc1c2c(c(OCC)c3ccccc13)C(=O)N(c1ccc(CS(=O)(=O)NC(=O)Cc3ccc4c(c3)OCO4)cc1)C2 [Example 84],≤ 0.1 µM
4,CCOc1c2c(c(OCC)c3ccccc13)C(=O)N(c1ccc(CS(=O)(=O)NC(=O)Cc3ccccc3CC(=O)OC)cc1)C2 [Example 47],≤ 0.1 µM
5,CCOc1c2c(c(OCC)c3ccccc13)C(=O)N(c1ccc(CS(=O)(=O)NC(=O)Cc3ccc(OC(F)(F)F)cc3)cc1)C2 [Example 80],≤ 0.1 µM
6,"CCOc1c2c(c(OCC)c3ccccc13)C(=O)N(c1ccc(CS(=O)(=O)NC(=O)Cc3cccc(OC)c3)cc1)C2 [Example 43, 1-[4-(4,9-diethoxy-1-oxo-1,3-dihydro-2H-benzo[f]isoindol-2-yl)phenyl]-N-[(3-methoxyphenyl)acetyl]methanesulfonamide]",≤ 0.1 µM
7,CCOc1c2c(c(OCC)c3ccccc13)C(=O)N(c1ccc(CS(=O)(=O)NC(=O)Cc3ccc(C(C)C)cc3)cc1)C2 [Example 27],≤ 0.1 µM
8,CCOc1ccc(CC(=O)NS(=O)(=O)Cc2ccc(N3Cc4c(c(OCC)c5ccccc5c4OCC)C3=O)cc2)cc1OCC [Example 82],≤ 0.1 µM
9,CCOc1c2c(c(OCC)c3ccccc13)C(=O)N(c1ccc(CS(=O)(=O)NC(=O)Cc3cccc(OC(F)(F)F)c3)cc1)C2 [Example 81],≤ 0.1 µM
10,CCOc1c2c(c(OCC)c3ccccc13)C(=O)N(c1ccc(CS(=O)(=O)NC(=O)Cc3cccc(C)c3)cc1)C2 [Example 26],≤ 0.1 µM
11,"CCOc1c2c(c(OCC)c3ccccc13)C(=O)N(c1ccc(CS(=O)(=O)NC(=O)Cc3ccc(OC)c(OC)c3)cc1)C2 [Example 38, 1-[4-(4,9-diethoxy-1-oxo-1,3-dihydro-2H-benzo[f]isoindol-2-yl)phenyl]-N-[(3,4-dimethoxyphenyl)acetyl]methanesulfonamide]",≤ 0.1 µM
12,CCOc1c2c(c(OCC)c3ccccc13)C(=O)N(c1ccc(CS(=O)(=O)NC(=O)Cc3ccc(CC)cc3)cc1)C2 [Example 28],≤ 0.1 µM
13,CCOc1c2c(c(OCC)c3ccccc13)C(=O)N(c1ccc(CS(=O)(=O)NC(=O)Cc3cc(OC)ccc3OC)cc1)C2 [Example 36],≤ 0.1 µM
14,CCOc1c2c(c(OCC)c3ccccc13)C(=O)N(c1ccc(CS(=O)(=O)NC(=O)Cc3ccsc3)cc1)C2 [Example 51],≤ 0.1 µM

# Second part, the compound after the results:
row,Ki,Compound
1,≤ 0.1 µM,CCOc1c2c(c(OCC)c3ccccc13)C(=O)N(c1ccc(CS(=O)(=O)NC(=O)Cc3ccccc3C)cc1)C2 [Example 21]
2,≤ 0.1 µM,CCOc1c2c(c(OCC)c3ccccc13)C(=O)N(c1ccc(CS(=O)(=O)NC(=O)Cc3ccc(F)cc3)cc1)C2=O [Example 62]
3,≤ 0.1 µM,CCOc1c2c(c(OCC)c3ccccc13)C(=O)N(c1ccc(CS(=O)(=O)NC(=O)Cc3cc(F)ccc3F)cc1)C2=O [Example 69]
4,≤ 0.1 µM,CCOc1c2c(c(OCC)c3ccccc13)C(=O)N(c1ccc(CS(=O)(=O)NC(=O)Cc3cccc(OC)c3)cc1)C2=O [Example 63]
5,≤ 0.1 µM,CCOc1c2c(c(OCC)c3ccccc13)C(=O)N(c1ccc(CS(=O)(=O)NC(=O)C(C)c3ccccc3)cc1)C2=O (centres unmarked) [Example 68]
6,≤ 0.1 µM,"CCOc1c2c(c(OCC)c3ccccc13)C(=O)N(c1ccc(CS(=O)(=O)NC(=O)Cc3ccccc3)cc1)C2=O [Example 1, 1-[4-(4,9-diethoxy-1,3-dioxo-1,3-dihydro-2H-benzo[f]isoindol-2-yl)phenyl]-N-(phenylacetyl)methanesulfonamide]"
7,≤ 0.1 µM,CCOc1c2c(c(OCC)c3ccccc13)C(=O)N(c1ccc(CS(=O)(=O)NC(=O)Cc3ccc4ccccc4c3)cc1)C2=O [Example 77]
8,≤ 0.1 µM,CCOc1c2c(c(OCC)c3ccccc13)C(=O)N(c1ccc(CS(=O)(=O)NC(=O)Cc3ccc(OC)cc3)cc1)C2=O [Example 2]
9,≤ 0.1 µM,CCOc1c2c(c(OCC)c3ccccc13)C(=O)N(c1ccc(CS(=O)(=O)NC(=O)Cc3ccccc3C)cc1)C2=O [Example 61]
